# Assay results published in publication PMC9747717, “A novel small molecule inhibitor of human Drp1” (Scientific Reports, 2022).
# Legend:
# [1] = biological target: T1, human Drp1 isoform 3 (Homo sapiens, UniProt O00429); test: Drp1 GTPase activity, colorimetric malachite green assay; type: biochemical
# T1 construct: His tag; made in house; host or cells: E. coli Rosetta (DE3), pET21b vector
# Procedure: The GTPase activity of Drp1, which is required for the latter to mediate mitochondrial fission, was examined using the colorimetric GTPase assay kit (Innova Biosciences, Cambridge, UK) according to the manufacturer’s instructions. Compounds were diluted in DMSO (all with a final concentration of 0.1% DMSO). Recombinant human Drp1 protein isoform-3 (final concentration 0.25 ng/µL) was diluted in assay buffer containing 50 mM Tris HCl (pH 7.5) and 2.5 mM MgCl2, followed by incubation with compounds for 15 min at 37 °C in a 96 well plate. 0.5 mM GTP, diluted in assay buffer, was then added into the mixture followed by incubation at 37 °C for 30 min.
# Upon binding to Drp1, GTP is hydrolysed into GDP and free phosphate (Pi)[24]. Therefore, the degree of GTPase inhibition was assessed by measuring the concentration of Pi released into the assay buffer, which is detected by a malachite green-based dye. The intensity of Pi-dye complex was assessed by measuring the light absorbance at 635 nm wavelength using a microplate reader (BenchMark Plus, MS, USA). Absorbance of each experimental group was normalised to the vehicle control (DMSO).
# [2] = system: Human foreskin fibroblasts; test: Mitochondrial morphology analysis in human fibroblasts; type: cell-based
# Procedure: Human foreskin fibroblasts and Drp1 wildtype and KO MEF (kindly provided by Professor Hiromi Sesaki, Johns Hopkins University, USA)[28],[29] were transduced with pAS2.EYFP.puro lentiviruses (RNAiCore, Academia Sinica, Taiwan) carrying the mitochondrial-targeted EGFP sequence as described in Kalkhoran et al.[30]. Cells were then treated with DRP1i27 (5, 10 or 50 µM) or 0.1% DMSO vehicle control for 24 h.
# Mitochondrial morphology in HL-1 cells were visualised by immunostaining of mitochondrial Hsp60 antibody (Abcam, MA, USA). Images were acquired using Olympus BX60 fluorescence microscope at 600 × magnification and analysed using Fiji imaging software (ImageJ v1.53c). Cells were categorised into predominantly (> 50%) having fused or fragmented mitochondria. At least 100 cells were analysed for each treatment group.
# T1 sequence (O00429 1-699 isoform O00429-4): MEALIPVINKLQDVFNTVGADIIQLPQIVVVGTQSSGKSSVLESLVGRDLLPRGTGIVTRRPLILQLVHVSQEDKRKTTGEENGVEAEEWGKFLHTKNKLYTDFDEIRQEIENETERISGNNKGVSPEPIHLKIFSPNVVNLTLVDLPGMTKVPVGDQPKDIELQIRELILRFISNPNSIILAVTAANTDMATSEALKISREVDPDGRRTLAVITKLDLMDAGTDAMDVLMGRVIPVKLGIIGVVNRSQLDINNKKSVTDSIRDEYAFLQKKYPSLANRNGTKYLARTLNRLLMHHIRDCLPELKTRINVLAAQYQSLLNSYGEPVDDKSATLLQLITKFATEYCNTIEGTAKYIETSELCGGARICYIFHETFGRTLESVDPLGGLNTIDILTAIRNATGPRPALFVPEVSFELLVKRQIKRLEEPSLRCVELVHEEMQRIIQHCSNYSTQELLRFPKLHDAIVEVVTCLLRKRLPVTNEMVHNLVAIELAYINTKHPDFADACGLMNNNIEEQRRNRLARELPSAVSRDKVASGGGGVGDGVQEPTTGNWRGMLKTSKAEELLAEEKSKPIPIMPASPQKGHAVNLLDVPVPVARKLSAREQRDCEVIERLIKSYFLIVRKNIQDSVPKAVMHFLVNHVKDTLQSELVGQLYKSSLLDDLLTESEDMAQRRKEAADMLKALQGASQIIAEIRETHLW
smiles,measurement,setting,value
Cc1nc[nH]c1CN1C[C@@H]2CC[C@H](C1)N(Cc1ccc(-c3cc[nH]n3)o1)C2 [DRP1i27],inhibition of GTPase activity of human Drp1,[1]; 5 µM,statistically significant reduction
same,inhibition of the conversion of GTP to GDP,[1]; 5–50 µM,trend of inhibition
same,percentage of cells with elongated mitochondria,"[2]; basal condition, compared to DMSO control",significant increase
same,cellular networks of mitochondria,"[2]; human fibroblasts, 5, 10 or 50 µM, 24 h",increase cellular networks of mitochondria
